Measured values as given in ChEMBL document CHEMBL4196025 (Eur J Med Chem, 2018).
Active and inactive are the calls of the source. No cut-off for these calls is given here.

Tests used:
PC-12 [1] = assay: Protection against CoCl2-induced damage in rat PC12 cells assessed as cell viability at 5 uM preincubated for 36 hrs followed by CoCl2 addition measured after 12 hrs by MTT assay (reference value: 51.2%); type: functional; conditions: read-out: Activity
Acetylcholinesterase [2] = target: Acetylcholinesterase (Electrophorus electricus, UniProt O42275); assay: Inhibition of electric eel AChE using acetylthiocholine iodide as substrate preincubated for 5 mins followed by DTNB addition for 5 mins and subsequent addition of substrate measured after 3 mins by Ellman's method
Chain of Acetylcholinesterase (Electrophorus electricus, UniProt O42275) (O42275 whole entry): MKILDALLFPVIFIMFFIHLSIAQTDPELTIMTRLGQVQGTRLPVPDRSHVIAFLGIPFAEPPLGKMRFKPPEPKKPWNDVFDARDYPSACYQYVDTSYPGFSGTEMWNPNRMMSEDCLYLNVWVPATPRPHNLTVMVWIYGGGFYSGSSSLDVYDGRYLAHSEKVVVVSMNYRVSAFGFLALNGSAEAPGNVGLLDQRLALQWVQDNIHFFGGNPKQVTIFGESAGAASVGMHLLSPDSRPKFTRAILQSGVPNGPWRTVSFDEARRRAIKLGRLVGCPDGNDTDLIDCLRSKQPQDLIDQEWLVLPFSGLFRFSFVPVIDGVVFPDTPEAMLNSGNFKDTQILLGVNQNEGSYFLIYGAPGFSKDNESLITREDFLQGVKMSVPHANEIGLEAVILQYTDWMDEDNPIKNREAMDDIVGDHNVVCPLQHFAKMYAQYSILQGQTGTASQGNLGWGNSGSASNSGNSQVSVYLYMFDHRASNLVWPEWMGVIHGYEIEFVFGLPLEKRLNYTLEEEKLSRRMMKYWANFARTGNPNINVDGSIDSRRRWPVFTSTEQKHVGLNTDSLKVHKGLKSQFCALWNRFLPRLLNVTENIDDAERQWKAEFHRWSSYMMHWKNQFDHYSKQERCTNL

[3] = target: Amyloid-beta precursor protein (Homo sapiens) (UniProt P05067); assay: Inhibition of self-induced amyloid beta (1 to 42) (unknown origin) aggregation up to 100 uM measured after 24 hrs by ThT fluorescence assay
Chain of Amyloid-beta precursor protein (Homo sapiens) (P05067 whole entry): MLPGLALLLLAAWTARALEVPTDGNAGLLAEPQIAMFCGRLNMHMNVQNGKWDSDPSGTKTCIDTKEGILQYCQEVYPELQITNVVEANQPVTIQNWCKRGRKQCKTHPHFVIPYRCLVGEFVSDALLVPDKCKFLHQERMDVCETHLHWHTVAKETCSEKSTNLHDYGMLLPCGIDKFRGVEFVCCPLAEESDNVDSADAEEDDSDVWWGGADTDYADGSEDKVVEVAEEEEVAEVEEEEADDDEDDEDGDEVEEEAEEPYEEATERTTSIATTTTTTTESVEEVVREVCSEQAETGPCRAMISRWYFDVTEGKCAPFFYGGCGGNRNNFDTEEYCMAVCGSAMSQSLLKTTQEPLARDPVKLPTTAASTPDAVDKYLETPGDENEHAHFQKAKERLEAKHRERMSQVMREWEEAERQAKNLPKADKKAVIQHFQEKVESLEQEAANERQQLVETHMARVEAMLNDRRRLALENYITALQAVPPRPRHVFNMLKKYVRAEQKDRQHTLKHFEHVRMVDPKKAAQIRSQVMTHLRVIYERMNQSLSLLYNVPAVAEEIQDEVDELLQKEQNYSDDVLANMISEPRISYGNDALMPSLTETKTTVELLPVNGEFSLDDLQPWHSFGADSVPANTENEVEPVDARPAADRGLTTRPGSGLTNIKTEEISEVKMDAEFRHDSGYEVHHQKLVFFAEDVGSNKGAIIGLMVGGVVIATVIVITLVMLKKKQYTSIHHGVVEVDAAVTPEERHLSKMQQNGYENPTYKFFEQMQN

Cholinesterase [4] = target: Cholinesterase (Equus caballus, UniProt P81908)
Chain of Cholinesterase (Equus caballus, UniProt P81908) (P81908 whole entry): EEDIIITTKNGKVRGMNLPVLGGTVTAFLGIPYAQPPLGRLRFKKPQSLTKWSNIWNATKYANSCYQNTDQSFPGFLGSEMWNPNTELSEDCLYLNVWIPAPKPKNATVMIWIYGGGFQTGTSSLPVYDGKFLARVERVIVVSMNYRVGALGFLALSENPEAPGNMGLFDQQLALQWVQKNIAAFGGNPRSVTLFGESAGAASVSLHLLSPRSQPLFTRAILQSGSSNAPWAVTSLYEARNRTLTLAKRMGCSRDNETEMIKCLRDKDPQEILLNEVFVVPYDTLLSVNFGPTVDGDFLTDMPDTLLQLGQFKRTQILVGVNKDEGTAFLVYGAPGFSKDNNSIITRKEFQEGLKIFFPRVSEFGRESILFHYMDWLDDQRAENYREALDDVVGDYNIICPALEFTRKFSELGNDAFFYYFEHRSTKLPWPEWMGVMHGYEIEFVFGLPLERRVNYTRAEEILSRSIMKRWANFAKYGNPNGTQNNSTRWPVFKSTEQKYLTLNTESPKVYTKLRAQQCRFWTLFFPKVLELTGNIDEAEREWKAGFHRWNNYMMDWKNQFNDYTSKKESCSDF
Description: Inhibition of equine serum BCHE using butyrylthiocholine iodide as substrate preincubated for 5 mins followed by DTNB addition for 5 mins and subsequent addition of substrate measured after 3 mins by Ellman's method

PC-12 [5] = assay: Protection against CoCl2-induced damage in rat PC12 cells assessed as cell viability at 10 uM preincubated for 36 hrs followed by CoCl2 addition measured after 12 hrs by MTT assay (reference value: 51.2%); type: functional; conditions: read-out: Activity
Acetylcholinesterase [6] = target: T1, Acetylcholinesterase (Homo sapiens, UniProt P22303); assay: Inhibition of human erythrocyte AChE using acetylthiocholine iodide as substrate preincubated for 5 mins followed by DTNB addition for 5 mins and subsequent addition of substrate measured after 3 mins by Ellman's method
T1 sequence (P22303 whole entry): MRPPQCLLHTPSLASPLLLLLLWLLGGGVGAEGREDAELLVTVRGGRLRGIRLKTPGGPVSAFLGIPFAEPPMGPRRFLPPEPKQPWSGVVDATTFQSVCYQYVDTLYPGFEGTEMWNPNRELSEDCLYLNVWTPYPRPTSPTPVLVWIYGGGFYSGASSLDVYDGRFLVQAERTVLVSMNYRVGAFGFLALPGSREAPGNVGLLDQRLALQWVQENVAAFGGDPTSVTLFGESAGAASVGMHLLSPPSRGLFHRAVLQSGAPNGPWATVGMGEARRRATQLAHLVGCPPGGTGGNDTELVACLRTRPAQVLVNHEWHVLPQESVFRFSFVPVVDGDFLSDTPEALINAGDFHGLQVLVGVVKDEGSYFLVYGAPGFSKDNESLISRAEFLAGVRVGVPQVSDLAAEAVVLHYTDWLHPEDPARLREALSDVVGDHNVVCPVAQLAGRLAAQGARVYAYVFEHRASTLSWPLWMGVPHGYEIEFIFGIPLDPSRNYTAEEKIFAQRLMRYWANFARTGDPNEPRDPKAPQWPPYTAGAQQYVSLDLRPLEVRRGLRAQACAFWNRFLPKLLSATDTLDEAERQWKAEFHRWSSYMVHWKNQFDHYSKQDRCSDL

Cholinesterase [7] = target: Cholinesterase (Homo sapiens, UniProt P06276); assay: Inhibition of human serum BCHE using butyrylthiocholine iodide as substrate preincubated for 5 mins followed by DTNB addition for 5 mins and subsequent addition of substrate measured after 3 mins by Ellman's method
Chain of Cholinesterase (Homo sapiens, UniProt P06276) (P06276 whole entry): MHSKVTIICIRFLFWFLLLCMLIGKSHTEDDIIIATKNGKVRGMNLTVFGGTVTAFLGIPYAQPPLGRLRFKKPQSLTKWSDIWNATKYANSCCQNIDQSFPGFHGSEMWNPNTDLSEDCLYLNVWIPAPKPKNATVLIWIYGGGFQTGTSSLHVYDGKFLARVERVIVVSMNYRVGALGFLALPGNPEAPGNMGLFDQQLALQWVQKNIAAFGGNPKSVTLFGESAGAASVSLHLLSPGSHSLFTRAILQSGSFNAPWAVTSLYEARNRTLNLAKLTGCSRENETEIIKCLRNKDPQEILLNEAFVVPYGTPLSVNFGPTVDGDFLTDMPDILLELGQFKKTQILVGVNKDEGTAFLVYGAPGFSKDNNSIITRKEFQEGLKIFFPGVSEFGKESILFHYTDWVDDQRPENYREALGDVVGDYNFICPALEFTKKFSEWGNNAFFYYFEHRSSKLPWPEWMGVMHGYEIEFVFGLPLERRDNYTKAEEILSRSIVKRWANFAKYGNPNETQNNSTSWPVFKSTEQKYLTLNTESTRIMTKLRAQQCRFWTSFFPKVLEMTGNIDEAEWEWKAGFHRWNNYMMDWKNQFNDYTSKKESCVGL

PC-12 [8] = assay: Protection against CoCl2-induced damage in rat PC12 cells assessed as cell viability at 2.5 uM preincubated for 36 hrs followed by CoCl2 addition measured after 12 hrs by MTT assay (reference value: 51.2%); type: functional; conditions: read-out: Activity
Acetylcholinesterase [9] = target: T1, Acetylcholinesterase; assay: Mixed-type inhibition of human erythrocyte AChE at 2.5 to 10 nM using varying levels of acetylthiocholine iodide as substrate by Lineweaver-Burk plot analysis
PC-12 [10] = assay: Protection against CoCl2-induced damage in rat PC12 cells assessed as increase in cell viability preincubated for 36 hrs followed by CoCl2 addition measured after 12 hrs by MTT assay; type: functional, cell-based
Acetylcholinesterase [11] = target: T1, Acetylcholinesterase; assay: Potency index, ratio of tacrine IC50 to compound IC50 for inhibition of human erythrocyte AChE
[12] = target: Amyloid-beta precursor protein (Homo sapiens) (UniProt P05067); assay: Inhibition of self-induced amyloid beta (1 to 42) (unknown origin) aggregation at 100 uM measured after 24 hrs by ThT fluorescence assay relative to control
in vitro [13] = conditions: human, HepG2 cells
Description: Cytotoxicity against human HepG2 cells assessed as cell viability at 5 uM after 24 hrs by MTT assay relative to control

[14] = target: Acetylcholinesterase (Electrophorus electricus) (UniProt O42275); assay: Mixed-type inhibition of electric eel AChE at 2.5 to 10 nM using varying levels of acetylthiocholine iodide as substrate by Lineweaver-Burk plot analysis
Chain of Acetylcholinesterase (Electrophorus electricus) (O42275 24-633 limits assumed): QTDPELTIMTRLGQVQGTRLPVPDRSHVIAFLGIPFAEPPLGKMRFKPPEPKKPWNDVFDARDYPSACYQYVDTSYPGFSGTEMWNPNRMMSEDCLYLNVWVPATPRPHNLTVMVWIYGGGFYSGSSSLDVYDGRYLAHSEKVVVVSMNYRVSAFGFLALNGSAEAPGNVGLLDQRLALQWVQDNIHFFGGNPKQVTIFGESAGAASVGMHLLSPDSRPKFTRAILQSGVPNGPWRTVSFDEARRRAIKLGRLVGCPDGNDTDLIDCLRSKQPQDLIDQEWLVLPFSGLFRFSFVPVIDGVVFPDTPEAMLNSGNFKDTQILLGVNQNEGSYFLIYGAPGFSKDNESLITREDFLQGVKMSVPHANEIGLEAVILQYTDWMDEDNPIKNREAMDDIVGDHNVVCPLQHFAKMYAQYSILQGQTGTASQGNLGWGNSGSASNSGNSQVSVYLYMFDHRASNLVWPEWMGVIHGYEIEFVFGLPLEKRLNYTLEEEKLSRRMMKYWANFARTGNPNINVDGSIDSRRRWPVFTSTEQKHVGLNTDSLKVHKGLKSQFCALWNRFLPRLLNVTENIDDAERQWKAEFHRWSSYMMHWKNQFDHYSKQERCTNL

in vitro [15] = conditions: human, HepG2 cells; remark: listed apart in the source
Description: Cytotoxicity against human HepG2 cells assessed as cell viability at 10 uM after 24 hrs by MTT assay relative to control

[16] = target: Amyloid-beta precursor protein (Homo sapiens) (UniProt P05067); assay: Inhibition of self-induced amyloid beta (1 to 42) (unknown origin) aggregation measured after 24 hrs by ThT fluorescence assay
[17] = Cytotoxicity against NGF-differentiated rat PC12 cells assessed as cell viability at 10 uM after 48 hrs by MTT assay relative to control; type: cell-based, PC-12; conditions: read-out: Activity
[18] = target: Amyloid-beta precursor protein (Homo sapiens) (UniProt P05067); assay: Inhibition of self-induced amyloid beta (1 to 42) (unknown origin) aggregation at 20 uM measured after 24 hrs by ThT fluorescence assay relative to control
in vitro [19] = conditions: human, HepG2 cells; remark: listed apart in the source
Description: Cytotoxicity against human HepG2 cells assessed as cell viability at 2.5 uM after 24 hrs by MTT assay relative to control

in vitro [20] = conditions: human, HepG2 cells; remark: listed apart in the source
Description: Cytotoxicity against human HepG2 cells assessed as cell viability at 1.25 uM after 24 hrs by MTT assay relative to control

| SMILES | IC50 (Acetylcholinesterase [2]) [nM] | IC50 (Cholinesterase [4]) [nM] | other results |
| --- | --- | --- | --- |
| COc1cc(/C=C/C(=O)NCCCCCCNc2c3c(nc4ccccc24)CCCC3)cc(OC)c1OCc1nc(C)c(C)nc1C | 2.6 | 28.6 | viability at 5 µM (PC-12 [1]): 15%; inhibition [3]: inactive; viability at 10 µM (PC-12 [5]): 11.2%; IC50 (Acetylcholinesterase [6]): 108 nM; IC50 (Cholinesterase [7]): 577 nM; viability at 2.5 µM (PC-12 [8]): 37.7% |
| Cc1nc(C)c(COc2ccc(CC(O)C(=O)NCCCNc3c4c(nc5ccccc35)CCCC4)cc2OCc2nc(C)c(C)nc2C)nc1C (centres undefined) | > 1000 | 165 | – |
| Cc1nc(C)c(COc2ccc(/C=C/C(=O)NCCNc3c4c(nc5ccccc35)CCCC4)cc2OCc2nc(C)c(C)nc2C)nc1C | 108 | > 1000 | – |
| Cc1nc(C)c(COc2ccc(/C=C/C(=O)NCCCNc3c4c(nc5ccccc35)CCCC4)cc2)nc1C | 205 | 5.2 | – |
| Cc1nc(C)c(COc2ccc(/C=C/C(=O)NCCNc3c4c(nc5ccccc35)CCCC4)cc2)nc1C | 44.9 | 589 | – |
| O=C(/C=C/c1ccc(O)cc1)NCCCCCCNc1c2c(nc3ccccc13)CCCC2 | 44.6 | 24.1 | – |
| Cc1nc(C)c(COc2ccc(/C=C/C(=O)NCCCCNc3c4c(nc5ccccc35)CCCC4)cc2OCc2nc(C)c(C)nc2C)nc1C | 139 | 111 | – |
| COc1cc(/C=C/C(=O)NCCCCCCNc2c3c(nc4ccccc24)CCCC3)ccc1OCc1nc(C)c(C)nc1C | 14.7 | 28.3 | – |
| Cc1nc(C)c(COc2ccc(CC(O)C(=O)NCCCCCCCCNc3c4c(nc5ccccc35)CCCC4)cc2OCc2nc(C)c(C)nc2C)nc1C (centres undefined) | 65.1 | 3.8 | – |
| O=C(/C=C/c1ccc(O)cc1)NCCCNc1c2c(nc3ccccc13)CCCC2 | 128 | 43.3 | – |
| COc1cc(/C=C/C(=O)NCCCCCCNc2c3c(nc4ccccc24)CCCC3)cc(OC)c1O | 3.9 | 24.3 | inhibition (Acetylcholinesterase [9]): Active; Activity (PC-12 [10]): Dose-dependent effect; Ratio IC50 (Acetylcholinesterase [11]): 2; viability at 5 µM (PC-12 [1]): 99.5%; inhibition [12]: 48%; viability at 24 h, 5 µM (in vitro [13]): 94.9%; inhibition [14]: Active; viability at 24 h, 10 µM (in vitro [15]): 81.8%; inhibition [16]: Dose-dependent effect; viability at 48 h, 10 µM [17]: 131%; inhibition [18]: 47%; viability at 10 µM (PC-12 [5]): 107%; viability at 24 h, 2.5 µM (in vitro [19]): 96.3%; IC50 (Acetylcholinesterase [6]): 65.2 nM; IC50 (Cholinesterase [7]): 48.8 nM; viability at 24 h, 1.25 µM (in vitro [20]): 98.4%; viability at 2.5 µM (PC-12 [8]): 92.4% |
| COc1cc(/C=C/C(=O)NCCCCCCCCNc2c3c(nc4ccccc24)CCCC3)cc(OC)c1O | 32.5 | 9.3 | – |
| COc1cc(/C=C/C(=O)NCCCCNc2c3c(nc4ccccc24)CCCC3)ccc1OCc1nc(C)c(C)nc1C | 188 | 32.4 | – |
| Cc1nc(C)c(COc2ccc(/C=C/C(=O)NCCCNc3c4c(nc5ccccc35)CCCC4)cc2OCc2nc(C)c(C)nc2C)nc1C | 13.7 | 199 | – |
| O=C(/C=C/c1ccc(O)cc1)NCCCCNc1c2c(nc3ccccc13)CCCC2 | 139 | 29.8 | – |
| Cc1nc(C)c(COc2ccc(/C=C/C(=O)NCCCCCCCCNc3c4c(nc5ccccc35)CCCC4)cc2)nc1C | 264 | 228 | – |
| Cc1nc(C)c(COc2ccc(CC(O)C(=O)NCCNc3c4c(nc5ccccc35)CCCC4)cc2OCc2nc(C)c(C)nc2C)nc1C (centres undefined) | > 1000 | 816 | – |
| COc1cc(/C=C/C(=O)NCCCCNc2c3c(nc4ccccc24)CCCC3)cc(OC)c1OCc1nc(C)c(C)nc1C | 179 | > 1000 | – |

| SMILES | IC50 (Acetylcholinesterase [2]) [nM] | IC50 (Cholinesterase [4]) [nM] | other results |
| --- | --- | --- | --- |
| Cc1nc(C)c(COc2ccc(/C=C/C(=O)NCCCCNc3c4c(nc5ccccc35)CCCC4)cc2)nc1C | 334 | 2.3 | – |
| O=C(/C=C/c1ccc(O)cc1)NCCNc1c2c(nc3ccccc13)CCCC2 | 110 | 302 | – |
| COc1cc(/C=C/C(=O)NCCCNc2c3c(nc4ccccc24)CCCC3)cc(OC)c1O | 25.8 | 330 | – |
| Cc1c(C)c2c(c(C)c1O)CCC(C)(C(=O)O)O2 (centres undefined) [TROLOX] | – | – | viability at 10 µM (PC-12 [5]): 101% |
| COc1cc(/C=C/C(=O)NCCCNc2c3c(nc4ccccc24)CCCC3)ccc1OCc1nc(C)c(C)nc1C | 12.2 | 22.6 | – |
| COc1cc(/C=C/C(=O)NCCNc2c3c(nc4ccccc24)CCCC3)cc(OC)c1OCc1nc(C)c(C)nc1C | 65.3 | 613 | – |
| O=C(/C=C/c1ccc(O)cc1)NCCCCCCCCNc1c2c(nc3ccccc13)CCCC2 | 522 | 278 | – |
| Cc1nc(C)c(COc2ccc(CC(O)C(=O)NCCCCNc3c4c(nc5ccccc35)CCCC4)cc2OCc2nc(C)c(C)nc2C)nc1C (centres undefined) | > 1000 | > 1000 | – |
| Cc1nc(C)c(COc2ccc(/C=C/C(=O)NCCCCCCNc3c4c(nc5ccccc35)CCCC4)cc2)nc1C | 304 | 147 | – |
| COc1cc(/C=C/C(=O)NCCNc2c3c(nc4ccccc24)CCCC3)cc(OC)c1O | 101 | > 1000 | – |
| COc1cc(/C=C/C(=O)NCCCCNc2c3c(nc4ccccc24)CCCC3)cc(OC)c1O | 64.4 | 241 | – |
| COc1cc(/C=C/C(=O)NCCCCCCCCNc2c3c(nc4ccccc24)CCCC3)cc(OC)c1OCc1nc(C)c(C)nc1C | 145 | 16.6 | – |
| COc1cc(/C=C/C(=O)NCCNc2c3c(nc4ccccc24)CCCC3)ccc1OCc1nc(C)c(C)nc1C | 33.1 | 502 | – |
| COc1cc(/C=C/C(=O)NCCCNc2c3c(nc4ccccc24)CCCC3)cc(OC)c1OCc1nc(C)c(C)nc1C | 116 | > 1000 | – |
| Cc1nc(C)c(COc2ccc(/C=C/C(=O)NCCCCCCCCNc3c4c(nc5ccccc35)CCCC4)cc2OCc2nc(C)c(C)nc2C)nc1C | > 1000 | 61.8 | – |
| Cc1nc(C)c(COc2ccc(/C=C/C(=O)NCCCCCCNc3c4c(nc5ccccc35)CCCC4)cc2OCc2nc(C)c(C)nc2C)nc1C | 136 | 68.1 | – |
| Cc1nc(C)c(COc2ccc(CC(O)C(=O)NCCCCCCNc3c4c(nc5ccccc35)CCCC4)cc2OCc2nc(C)c(C)nc2C)nc1C (centres undefined) | 270 | 1.3 | – |
| COc1cc(/C=C/C(=O)NCCCCCCCCNc2c3c(nc4ccccc24)CCCC3)ccc1OCc1nc(C)c(C)nc1C | 304 | 174 | – |
